Measurements reported in patent US20230279379A1, “METHODS AND MICROFLUIDIC DEVICE FOR PRODUCING EXTRACELLULAR VESICLES” (THE BOARD OF TRUSTEES OF THE UNIVERSITY OF ILLINOIS, priority 2022, published 2023).
“Also recorded” adds a separate entry of the source. Where no end group is shown, it is not given here.

System: Primary human MSCs
Test: EV secretion per cell from MSCs on hydrogel substrates, nanoparticle tracking analysis
Assay type: cell-based
Conditions: for EV secretion vs vehicle: 3 μM MnCl2 during and after adhesion, elastic alginate-RGD hydrogels, soft and stiff
Procedure: Cell Seeding on Hydrogels. Hydrogel discs were placed in ultra-low binding polystyrene well plates (Corning) to ensure cells attach to hydrogels and not the plate surface. Hydrogels were washed with Hank's buffered salt solution (HBSS, Thermo Fisher Scientific) for at least 3 days before seeding cells. Cells were seeded at a low density (25 cells/mm^2). After seeding, hydrogels were washed thoroughly to remove unattached cells. Drug treatments of 3 μM MnCl2 (Thermo Fisher Scientific), 200 nM EMD 121974 sold under the tradename Cilengitide® (Cayman) and 5 μM CK869 (Cayman) were applied during and after cell adhesion to substrates. To evaluate the number of live cells seeded on substrates, cells were detached by incubating with a natural enzyme mixture with proteolytic and collagenolytic enzyme activity sold under the tradename ACCUTASE® Cell Detachment Solution (Innovative Cell Technologies, Inc.) for 10 minute at 37° C. Cells were then washed by centrifugation and directly added to HBSS containing calcein AM (1:2000; Biotium), ethidium bromide (1:2000; Thermo Fisher Scientific), and a predefined number of allophycocyanin (APC) beads (BD). After incubation at room temperature (RT) for 10 minutes, the samples were analyzed for live and dead cell number by flow cytometry.
Particle Size and Number Characterization. Particle size and number were obtained using Nanoparticle Tracking Analysis 3.2 (NTA) via NanoSight NS300 (Malvern) using a 405 nm laser. Samples were introduced by syringe pump at a rate 100 μL/min. Three thirty-second videos were acquired using camera level 14 followed by detection threshold 7. Camera focus, shutter, blur, minimum track length, minimum expected particle size and maximum jump length were set automatically by the software. Samples were diluted as needed to maintain particles per video from 100-2000. To ensure specificity, all samples were tested as compared to appropriate blank conditions.
To test the effect of substrate mechanics on EV secretion from MSCs, hydrogel substrates were engineered which were composed of alginate polymer conjugated with the cell adhesion peptide Arg-Gly-Asp (RGD) that binds primarily to αvβ3 and α5β1 integrins. Alginate-RGD hydrogels can be formed either covalently through adipic acid dihydrazide or physically through divalent cations, resulting in elastic or stress-relaxing hydrogels, respectively. For both types of hydrogels, elastic modulus (Young's modulus, E) of ˜3 kPa ‘soft’ and E ˜20 kPa ‘stiff’ were considered values that represent a physiologically relevant range of substrate elasticity for MSC mechanosensing, while E is ˜0.1 GPa for conventional plastic substrates. Primary human bone marrow MSCs were allowed to adhere to substrates for 24 hours followed by washout and collection of the serum-free conditioned medium from MSCs after 24 hours. After centrifugation of the medium at 10,000 g to remove cell, apoptotic, and larger particle fractions, particles remaining in the medium were analyzed by nanoparticle tracking analysis and normalized to the number of live adhered cells counted by flow cytometry (see Methods). MSCs were seeded at low density (˜25 cells/mm^2) to avoid potential effects from cell-cell interactions. […] Thus, focus was placed on the EVs remaining in the supernatant after the 10,000 g centrifugation. For these EVs, the particle size distribution remained similar across different substrates with median diameter ˜120 nm (FIG. 1B). […] Moreover, EVs from different substrates expressed similar levels of late endosomal markers CD63 and CD9. Importantly, levels of ribosomal RNA (rRNA) in particle preparations were similar across hydrogels or plastic substrates, and rRNA as a percentage of total RNA was lower than that found in untreated MSCs or particles derived from H2O2-treated apoptotic MSCs, ruling out apoptosis as a potential factor of increased EV secretion on the soft hydrogel. […]

## CC(C)[C@H]1C(=O)N[C@@H](CCCN=C(N)N)C(=O)NCC(=O)N[C@@H](CC(=O)O)C(=O)N[C@H](Cc2ccccc2)C(=O)N1C [EMD 121974]
200 nM EMD 121974 during and after adhesion, soft and stiff hydrogels
  EV secretion: significantly increased EV secretion on both soft and stiff hydrogels; also recorded: enhances EV secretion

## [Cl][Mn][Cl] [MnCl2]
  EV secretion vs vehicle: inhibits EV secretion
Listed as Mn^2+
  EV secretion vs vehicle: decreased to a greater extent on the soft hydrogel than the stiff hydrogel

## Cc1ccc2c(c1)C(=O)C1(O)CCN(c3ccccc3)C1=N2 (stereo not drawn) [blebbistatin]
50 μM blebbistatin, soft or stiff elastic alginate-RGD hydrogels
  exosome secretion: did not impact exosome secretion

## RGD: cell adhesion peptide, amino acid sequence GGGGRGDSP (SEQ ID NO:1), conjugated to hydrogel (also: conjugated to hydrogel)
FIG. 5
  EV secretion on decreasing the amount of RGD conjugated in hydrogels: significantly increases EV secretion
Decreasing RGD concentration from 0.8 to 0.16 mM, both soft and stiff hydrogels
  increase in EV secretion per cell: ~2 fold
